Results published in patent publication US20070073056A1, “4-Substituted Pyrazoline Compounds, their Preparation and Use as Medicaments” (LABORATORIOS DEL DR. ESTEVE, S.A., priority 2005, published 2007).
pIC50: −log10 of the molar value.

Assays:
[1] = target: recombinant human cannabinoid 1 receptor (CB1) (Homo sapiens, UniProt P21554); experiment: [35S]GTPγS binding assay, antagonism to CB1-receptor (Pharmacological methods, part V); type: biochemical; conditions: compound at 1 μM against agonist WIN 55,212-2; 100% = effect of Rimonabant (1 μM); CHO membranes
recombinant human cannabinoid 1 receptor (CB1), sequence (P21554 whole entry): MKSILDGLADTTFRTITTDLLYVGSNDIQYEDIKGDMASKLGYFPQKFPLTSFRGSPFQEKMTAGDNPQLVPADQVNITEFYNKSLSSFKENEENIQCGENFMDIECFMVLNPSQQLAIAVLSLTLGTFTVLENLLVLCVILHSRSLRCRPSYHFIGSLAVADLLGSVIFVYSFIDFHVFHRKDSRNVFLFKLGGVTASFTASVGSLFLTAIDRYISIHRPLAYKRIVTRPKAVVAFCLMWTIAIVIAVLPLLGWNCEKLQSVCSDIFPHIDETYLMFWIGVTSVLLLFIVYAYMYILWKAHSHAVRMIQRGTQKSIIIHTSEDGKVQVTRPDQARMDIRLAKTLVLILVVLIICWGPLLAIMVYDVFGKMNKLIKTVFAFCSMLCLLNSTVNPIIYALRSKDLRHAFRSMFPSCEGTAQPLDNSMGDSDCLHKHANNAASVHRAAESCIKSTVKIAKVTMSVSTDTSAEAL
Method: V. In vitro Determination of Antagonism to CB1-Receptor
Chinese hamster ovary (CHO) cells stably expressing recombinant human cannabinoid 1 receptor (CB1) were cultured in nutrient mixture Ham's F 12 supplemented with 10% heat-inactivated fetal bovine serum, 2 mM L-glutamine, 50 U/ml penicillin, 50 U/ml streptomycin and 0.5 mg/ml geneticin. In order to obtain cells, culture flasks were washed twice with phosphate buffered saline and scraped. Then, cells were collected by centrifugation (200×g, 10 min) and stored dry at −80° C. Cells were homogenized in ice-cold 20 mM HE PES, 10 mM EDTA (pH 7.5) and centrifuged at 40,000×g for 15 min at 4° C. The pellet was resuspended in 20 mM HEPES, 0.1 mM EDTA (pH 7.5) and centrifuged for 15 min at 4° C. The final pellet was resuspended in 20 mM HEPES, 0.1 mM EDTA (pH 7.5), and divided in aliquots and stored at −80° C. until use.
[^35S]GTPγS Binding Assay:
The reaction was performed in 96-well plates. […] The incubation was terminated by rapid filtration through Millipore Multiscreen glass fiber FB, and rinsed two-times with ice-cold assay buffer. Filter plates were dried and 30 μl of scintillation liquid was added. Radioactivity was determined using Wallac Microbeta Trilux. Each experiment was performed at least in duplicate.
The average of basal [35S]GTPγS binding was subtracted from all binding data.
The antagonism of the pyrazoline compounds of general formula I to the CB1-receptor was determined according to the method described in Pharmacological methods, part V (table 2).

[2] = target: CB1-receptor (UniProt P20272); experiment: binding of the pyrazoline compounds to CB1-receptors (Pharmacological Methods, Part I); design: other: 10^−7 M; other: 10^−8 M; species or system human or rat
In short: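 Rat cerebellum membranes (male Wistar), 100 μg protein, competed against 1 nM [3H]-CP 55,940 in 50 mM Tris-HCl, 5 mM MgCl2, 1 mM EDTA, 0.5% BSA, pH 7.4; 1 h at 30 °C. Non-specific binding with 10 μM HU-210; filtration and scintillation counting, triplicates, non-linear regression.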

[3] = target: CB1-receptor (UniProt P20272); experiment: as above; design: IC50; species or system human or rat; conditions: radioligand [3H]-CP55940, read-out: IC50
Method: I. In-vitro Determination of Affinity to CB1/CB2-Receptors
The in-vitro determination of the affinity of the inventive 4-substituted pyrazoline compounds to CB1/CB2-Rezeptors is carried out as described in the publication of Ruth A. Ross, Heather C. Brockie et al., “Agonist-inverse agonist characterisation at CB1 and CB2 cannabinoid receptors of L-759633, L759656 and AM630”, British Journal of Pharmacology, 126, 665-672, (1999), whereby the transfected human CB1 and CB2 receptors of Receptor Biology, Inc. are used. The radioligand used for both receptors is [^3H]-CP55940. The respective parts of the description is hereby incorporated by reference and forms part of the present disclosure.
Rat Cerebellum CB1 Binding
Binding affinity to CB1 receptor was evaluated according to a modification of the method described by Govaerts et al., Eur J Pharmac Sci 23, 233-243 (2004). The respective parts of the description is hereby incorporated by reference and forms part of the present disclosure.
Briefly, cerebellum from male wistar rats (250-300 g) were carefully dissected on ice and homogenates were prepared with Potter-Helveheim in a cold 50 mM Tris-HCl solution containing 5 mM MgCl2, 1 mM EDTA and 0.25 M sucrose, pH 7.4. The suspension was centrifuged at […] for 5 minutes. The supernatants were collected and centrifuged 50,000×g for 15 minutes. The resulting pellets were then resuspended in Tris-HCl buffer without sucrose, homogenized and incubated for 15 min at 37° C. in an orbital shaker bath and centrifuged again at 50,000×g for 15 min. Pellets were weighted, resuspended in Tris-HCl buffer without sucrose, homogenized with Ultraturrax at 13,500 rpm for 3×5 seconds and alicuoted in 0.9 ml volumes in Eppendorf tubes. Alicuotes were centrifuged at 20,800×g for 5 minutes, supernatants discarded and pellets were frozen at −80° C. until use. Total protein concentration was determined using the Bio-Rad Lowry method based kit. Competitive binding experiments were performed in presence of 1 nM [^3H]-CP 55,940 in siliconized glass tubes containing 100 μg protein/tube resuspended in 1 ml final volume of 50 mM Tris-HCl, 5 mM MgCl2, 1 mM EDTA, 0.5% (w/v) bovine serum albumin, pH 7.4. Compounds were present at various concentrations and the non specific binding was determined in the presence of 10 μM HU-210. After 1 hour incubation at 30° C., the suspension was rapidly filtered through 0.5% PEI pre-treated GF/B fiber filters on a 96-well harvester and washed 3 times with 3 ml ice-cold binding buffer without bovine serum albumin. Radioactivity on filters was measured with Wallac Winspectral 1414 counter by liquid scintillation in 6 ml Ecoscint H (National Diagnostics, U.K.). Assays were made in triplicates.
Binding data were analyzed by non-linear regression with the software GraphPad Prism Version 3.03.
The binding of the pyrazoline compounds of general formula I to CB1-receptors was determined according to the method described in the section Pharmacological Methods, Part I.

Antagonism [1]	Inhibition ([2]; 10^−7 M)	Inhibition ([2]; 10^−8 M, in %)	pIC50 [3]	SMILES
−18%	−3.6%	−0.7	–	C[C@H]1C(C(=O)O)=NN(c2ccc(Cl)cc2Cl)[C@H]1c1ccc(Cl)cc1 (racemic) [Example 19, cis-5-(4-Chloro-phenyl)-1-(2,4-dichloro-phenyl)-4-methyl-4,5-dihydro-1H-pyrazole-3-carboxylic acid]
–	65.7%	39.3	7.53	CC1CCCCC1NC(=O)C1=NN(c2ccc(Cl)cc2Cl)[C@H](c2ccc(Cl)cc2)[C@@H]1C (relative stereo) [Example 424, cis-5-(4-chlorophenyl)-1-(2,4-dichlorophenyl)-4-methyl-N-(2-methylcyclohexyl)-4,5-dihydro-1H-pyrazole-3-carboxamide]
23%	–	–	< 6.00	C[C@@H]1C(C(=O)NN2CCCCC2)=NN(c2ccc(Cl)cc2Cl)[C@@H]1c1cccs1.Cl (relative stereo) [Example 430, cis-1-(2,4-dichlorophenyl)-4-methyl-N-(piperidin-1-yl)-5-(thiophen-2-yl)-4,5-dihydro-1H-pyrazole-3-carboxamide hydrochloride]
–	72.3%	11.6	7.16	C[C@@H]1C(C(=O)N[C@H]2CCCC[C@@H]2O)=NN(c2ccc(Cl)cc2Cl)[C@@H]1c1ccc(Cl)cc1 (single isomer, unassigned) [Example 129]
–	65.3%	15.3	6.91	C[C@H]1C(C(=O)NN2CCCCCC2)=NN(c2ccc(Cl)cc2Cl)[C@H]1c1ccc(F)cc1.Cl (stereo in doubt) [Example 227, cis-N-(azepan-1-yl)-1-(2,4-dichlorophenyl)-5-(4-fluorophenyl)-4-methyl-4,5-dihydro-1H-pyrazole-3-carboxamide hydrochloride]

The remaining lines, values behind:

SMILES	Antagonism [1]	Inhibition ([2]; 10^−7 M)	Inhibition ([2]; 10^−8 M, in %)	pIC50 [3]
C[C@H]1C(C(=O)NN2CCCCC2)=NN(c2ccc(Cl)cc2Cl)[C@H]1c1ccc(Br)s1 (relative stereo) [Example 70, cis-5-(5-Bromo-thiophen-2-yl)-1-(2,4-dichloro-phenyl)-4-methyl-4,5-dihydro-1H-pyrazole-3-carboxylic acid piperidin-1-ylamide]	81%	–	–	–
C[C@@H]1C(C(=O)NN2CCCCC2)=NN(c2ccc(Cl)cc2Cl)[C@@H]1c1ccccc1 (relative stereo) [Example 375, cis-1-(2,4-dichlorophenyl)-4-methyl-5-phenyl-N-(piperidin-1-yl)-4,5-dihydro-1H-pyrazole-3-carboxamide]	58%	–	–	6.85
C[C@@H]1C(C(=O)NN2CCCCC2)=NN(c2ccc(Cl)cc2Cl)[C@H]1c1ccccc1 (relative stereo) [Example 376, trans-1-(2,4-dichlorophenyl)-4-methyl-5-phenyl-N-(piperidin-1-yl)-4,5-dihydro-1H-pyrazole-3-carboxamide]	75%	–	–	7.15
CCOC(=O)C1=NN(c2ccc(Cl)cc2Cl)[C@@H](c2ccc(Cl)cc2)[C@@H]1C(F)(F)F (relative stereo) [Example 416, trans-ethyl 5-(4-chlorophenyl)-1-(2,4-dichlorophenyl)-4-(trifluoromethyl)-4,5-dihydro-1H-pyrazole-3-carboxylate]	–	93.5%	41	6.74
C[C@@H]1C(C(=O)NN2CCCCC2)=NN(c2ccc(Cl)cc2Cl)[C@@H]1c1ccc(Br)cc1.Cl (relative stereo) [Example 418, cis-5-(4-bromophenyl)-1-(2,4-dichlorophenyl)-4-methyl-N-(piperidin-1-yl)-4,5-dihydro-1H-pyrazole-3-carboxamide hydrochloride]	–	62.6%	19.9	7.44
CC1CCCC(NC(=O)C2=NN(c3ccc(Cl)cc3Cl)[C@H](c3ccc(Cl)cc3)[C@@H]2C)C1 (relative stereo) [Example 423, cis-5-(4-chlorophenyl)-1-(2,4-dichlorophenyl)-4-methyl-N-(3-methylcyclohexyl)-4,5-dihydro-1H-pyrazole-3-carboxamide]	–	66.7%	33.1	7.34
CC[C@@H]1C(C(=O)NN2CCCCC2)=NN(c2ccc(Cl)cc2Cl)[C@@H]1c1ccc(Cl)cc1 (relative stereo) [Example 432, cis-5-(4-chlorophenyl)-1-(2,4-dichlorophenyl)-4-ethyl-N-(piperidin-1-yl)-4,5-dihydro-1H-pyrazole-3-carboxamide]	89%	–	–	7.05
C[C@@H]1C(C(=O)NN2CCCCC2)=NN(c2ccc(Cl)cc2Cl)[C@@H]1c1ccc(Cl)cc1 (single isomer, unassigned) [Example 419, (−)-cis-5-(4-chlorophenyl)-1-(2,4-dichlorophenyl)-4-methyl-N-(piperidin-1-yl)-4,5-dihydro-1H-pyrazole-3-carboxamide]	–	57.1%	27.8	7.27
